Values joined by “and” are separate entries in the source; they are usually repeats but may differ in a detail not shown here. Equal values may be shown once.
How the values were obtained:
[1] = biological target: T1, ERK5 (Homo sapiens, UniProt Q13164); experiment: ERK5 autophosphorylation assay (EGF-stimulated, mobility shift immunoblot); assay type: cell-based; set-up: endogenous in cells; host or cells: HeLa; conditions: inhibition of EGF-stimulated autophosphorylation of ERK5 in HeLa cells; read-out: Cellular EC50 (ERK5)
T1 sequence (Q13164 whole entry): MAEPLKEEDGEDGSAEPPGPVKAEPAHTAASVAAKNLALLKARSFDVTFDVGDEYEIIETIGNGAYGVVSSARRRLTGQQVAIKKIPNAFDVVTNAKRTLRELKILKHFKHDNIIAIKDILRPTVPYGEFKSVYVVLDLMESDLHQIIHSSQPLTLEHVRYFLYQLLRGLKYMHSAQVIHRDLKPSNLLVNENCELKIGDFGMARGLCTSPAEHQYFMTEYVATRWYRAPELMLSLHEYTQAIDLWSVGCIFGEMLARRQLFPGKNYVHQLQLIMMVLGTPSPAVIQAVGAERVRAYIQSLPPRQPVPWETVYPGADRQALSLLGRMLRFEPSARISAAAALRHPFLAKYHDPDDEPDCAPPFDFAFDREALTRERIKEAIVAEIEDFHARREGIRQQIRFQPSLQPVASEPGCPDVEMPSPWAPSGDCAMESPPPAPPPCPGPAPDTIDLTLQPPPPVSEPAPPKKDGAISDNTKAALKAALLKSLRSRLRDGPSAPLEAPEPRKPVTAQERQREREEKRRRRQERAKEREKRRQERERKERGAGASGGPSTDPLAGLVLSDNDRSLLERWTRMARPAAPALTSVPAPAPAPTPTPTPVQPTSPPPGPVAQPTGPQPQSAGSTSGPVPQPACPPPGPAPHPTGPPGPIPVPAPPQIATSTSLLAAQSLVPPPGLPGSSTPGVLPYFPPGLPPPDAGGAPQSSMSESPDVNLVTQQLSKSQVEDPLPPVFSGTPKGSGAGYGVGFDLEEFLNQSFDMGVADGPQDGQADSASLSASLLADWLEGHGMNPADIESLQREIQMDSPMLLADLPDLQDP
Excerpt: Proteins from total cell lysates were resolved by 6% sodium dodecyl sulfate (SDS)-poly-acrylamide gel electrophoresis (PAGE), transferred to nitrocellulose membrane, blocked in 5% nonfat milk, and blotted with anti-ERK5 antibody.

[2] = biological target: LRRK2[A2016T] (Homo sapiens, UniProt Q5S007, A2016T); experiment: LRRK2 cellular assay, Ser910/Ser935 phosphorylation in stably transfected HEK293 cells; conditions: drug-resistant mutant, up to 3 μM
Sequence of LRRK2[A2016T] (Q5S007 whole entry A2016T): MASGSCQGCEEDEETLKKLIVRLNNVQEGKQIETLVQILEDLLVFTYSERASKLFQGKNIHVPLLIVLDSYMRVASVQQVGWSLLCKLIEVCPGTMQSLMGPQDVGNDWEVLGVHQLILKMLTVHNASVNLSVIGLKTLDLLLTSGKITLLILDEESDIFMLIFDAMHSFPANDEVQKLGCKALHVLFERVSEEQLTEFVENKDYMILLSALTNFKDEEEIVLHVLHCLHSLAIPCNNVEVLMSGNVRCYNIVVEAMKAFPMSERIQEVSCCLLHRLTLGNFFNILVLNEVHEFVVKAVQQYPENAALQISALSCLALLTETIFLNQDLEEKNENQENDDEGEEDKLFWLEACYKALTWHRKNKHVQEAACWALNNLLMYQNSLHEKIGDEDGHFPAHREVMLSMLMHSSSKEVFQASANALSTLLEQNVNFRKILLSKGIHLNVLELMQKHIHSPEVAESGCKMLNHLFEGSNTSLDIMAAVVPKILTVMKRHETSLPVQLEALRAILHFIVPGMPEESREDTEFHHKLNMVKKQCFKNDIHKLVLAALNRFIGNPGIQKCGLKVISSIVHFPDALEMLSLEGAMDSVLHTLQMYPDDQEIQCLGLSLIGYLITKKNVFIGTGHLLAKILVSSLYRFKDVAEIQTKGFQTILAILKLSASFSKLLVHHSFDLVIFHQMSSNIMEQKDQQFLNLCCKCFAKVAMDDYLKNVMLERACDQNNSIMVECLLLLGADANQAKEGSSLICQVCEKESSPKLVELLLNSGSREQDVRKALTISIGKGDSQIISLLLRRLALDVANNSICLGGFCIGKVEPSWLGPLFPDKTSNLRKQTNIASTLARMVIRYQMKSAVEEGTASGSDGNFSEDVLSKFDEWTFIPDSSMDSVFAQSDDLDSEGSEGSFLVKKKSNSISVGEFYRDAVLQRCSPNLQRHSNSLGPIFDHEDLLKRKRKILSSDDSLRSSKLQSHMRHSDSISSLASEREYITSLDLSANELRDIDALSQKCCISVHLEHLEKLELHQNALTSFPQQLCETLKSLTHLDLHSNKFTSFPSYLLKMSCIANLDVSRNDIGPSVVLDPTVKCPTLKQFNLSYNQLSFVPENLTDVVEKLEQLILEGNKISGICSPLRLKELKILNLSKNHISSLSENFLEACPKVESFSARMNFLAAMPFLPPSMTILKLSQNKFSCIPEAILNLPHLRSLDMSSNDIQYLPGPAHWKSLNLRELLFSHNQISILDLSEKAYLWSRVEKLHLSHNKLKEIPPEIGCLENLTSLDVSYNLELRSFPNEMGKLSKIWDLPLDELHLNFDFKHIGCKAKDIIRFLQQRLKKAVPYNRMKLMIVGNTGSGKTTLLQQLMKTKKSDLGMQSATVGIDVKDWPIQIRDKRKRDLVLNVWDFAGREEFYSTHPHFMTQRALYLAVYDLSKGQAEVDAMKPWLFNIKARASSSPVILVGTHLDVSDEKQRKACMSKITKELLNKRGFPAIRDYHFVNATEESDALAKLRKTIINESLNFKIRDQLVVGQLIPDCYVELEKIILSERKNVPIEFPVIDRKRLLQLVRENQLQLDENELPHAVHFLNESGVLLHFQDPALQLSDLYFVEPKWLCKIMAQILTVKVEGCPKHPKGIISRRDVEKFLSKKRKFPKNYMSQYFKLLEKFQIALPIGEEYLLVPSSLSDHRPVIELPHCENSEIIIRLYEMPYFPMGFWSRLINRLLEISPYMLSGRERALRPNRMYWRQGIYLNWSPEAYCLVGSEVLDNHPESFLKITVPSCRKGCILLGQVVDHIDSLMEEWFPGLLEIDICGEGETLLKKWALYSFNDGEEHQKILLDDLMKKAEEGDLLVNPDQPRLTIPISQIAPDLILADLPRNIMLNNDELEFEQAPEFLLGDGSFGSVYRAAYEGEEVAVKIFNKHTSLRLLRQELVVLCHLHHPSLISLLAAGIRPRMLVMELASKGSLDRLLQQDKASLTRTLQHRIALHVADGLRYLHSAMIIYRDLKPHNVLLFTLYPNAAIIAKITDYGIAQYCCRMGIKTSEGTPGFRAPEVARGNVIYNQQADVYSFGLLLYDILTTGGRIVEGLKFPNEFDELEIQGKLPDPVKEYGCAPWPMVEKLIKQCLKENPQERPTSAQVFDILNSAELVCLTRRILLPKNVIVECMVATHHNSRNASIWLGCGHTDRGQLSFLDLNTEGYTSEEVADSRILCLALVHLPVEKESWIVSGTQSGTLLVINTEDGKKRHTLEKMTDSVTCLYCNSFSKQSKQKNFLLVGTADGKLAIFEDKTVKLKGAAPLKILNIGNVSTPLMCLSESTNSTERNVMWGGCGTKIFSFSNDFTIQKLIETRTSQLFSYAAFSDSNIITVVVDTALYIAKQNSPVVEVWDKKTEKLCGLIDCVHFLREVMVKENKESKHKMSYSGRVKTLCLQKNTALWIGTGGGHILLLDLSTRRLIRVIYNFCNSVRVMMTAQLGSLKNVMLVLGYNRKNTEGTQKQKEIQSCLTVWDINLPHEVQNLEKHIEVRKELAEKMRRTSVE
Protocol: (§1) Our cellular assay for LRRK2 measures the ability of compounds to inhibit LRRK2-dependent phosphorylation of Ser910 and Ser935 in stably transformed HEK293 cells as described previously [[21,25]].
(§2) As there are no validated direct phosphorylation substrates of LRRK2, we monitored phosphorylation of Ser910 and Ser935, two residues whose phosphorylation is known to be dependent upon LRRK2 kinase activity [25]
(§3) Cell culture, treatments and cell lysis. HEK293 was cultured in DMEM (Dulbecco's Modified Eagle's medium) supplemented with 10% FBS (fetal bovine serum), 2 mM glutamine and 1× penicillin/streptomycin solution. […] Following treatment, cells were washed once with phosphate buffered saline (PBS) buffer and lysed with lysis buffer (50 mM Tris/HCl, pH 7.5, 1 mM EGTA, 1 mM EDTA, 1 mM sodium orthovanadate, 10 mM sodium β-glycerophosphate, 50 mM NaF, 5 mM sodium pyrophosphate, 0.27 M sucrose, 1 mM benzamidine, 2 mM phenylmethanesulphonylfluoride (PMSF) and 1% Triton X-100). When not used immediately, all lysate supernatants were snap-frozen in liquid nitrogen and stored at −80 °C until use. Protein concentrations were determined following centrifugation of the lysate at 16,000× g at 4 °C for 20 min using the Bradford method with BSA as the standard. Transient transfection of HEK 293 cells was performed using the polyethyleneimine (PEI) method [35]. […]

[3] = biological target: T1, ERK5; experiment: ERK5 kinase activity in vitro assay (32P-ATP, PIMtide substrate); assay type: biochemical; set-up: hexahistidine (His6) (N); made in house; host or cells: Spodoptera frugiperda 21 cells (baculovirus, Bac-to-Bac); conditions: in vitro assay, recombinant active ERK5; read-out: Enzymatic IC50 (ERK5)
Protocol: pFastBAC vector encoding N-terminal hexahistidine-tagged human ERK5 and HA-tagged human MEK5-DD (constitutively active) were used to generate recombinant baculovirus using the Bac-to-Bac system (Invitrogen). […] His-tagged ERK5 was purified as described for His-tagged BRSK1[33], using 5 mL Ni-NTA-agarose resin (Qiagen) followed by gel filtration chromatography on Superdex 200HR column on an AKTA system (GE Healthcare).
Assays were carried out for 20 min at 30 °C, terminated by applying the reaction mixture onto p81 paper and the incorporated radioactivity measured as described previously.

[4] = test system: endogenous LRRK2; assay type: cell-based; conditions: EBV immortalized human lymphoblastoid cells, 90 min
[5] = Pharmacokinetics after intravenous and oral delivery in mice; assay type: in vivo
Protocol: The pharmacokinetic properties of 26 were also evaluated following intravenous and oral delivery in mice.

[6] = biological target: T2, selected panels of kinases in HeLa and PC3 cell lysates (Homo sapiens, UniProt Q05397); experiment: KiNativ chemical proteomics profiling in HeLa and PC3 cell lysates; assay type: binding; conditions: 10 uM; proteome PC3; peptide […]kTCK; labeling site Lys1
T2 construct: endogenous in cells; host or cells: HeLa and PC3 cell lysates
T2 sequence (Q05397 whole entry): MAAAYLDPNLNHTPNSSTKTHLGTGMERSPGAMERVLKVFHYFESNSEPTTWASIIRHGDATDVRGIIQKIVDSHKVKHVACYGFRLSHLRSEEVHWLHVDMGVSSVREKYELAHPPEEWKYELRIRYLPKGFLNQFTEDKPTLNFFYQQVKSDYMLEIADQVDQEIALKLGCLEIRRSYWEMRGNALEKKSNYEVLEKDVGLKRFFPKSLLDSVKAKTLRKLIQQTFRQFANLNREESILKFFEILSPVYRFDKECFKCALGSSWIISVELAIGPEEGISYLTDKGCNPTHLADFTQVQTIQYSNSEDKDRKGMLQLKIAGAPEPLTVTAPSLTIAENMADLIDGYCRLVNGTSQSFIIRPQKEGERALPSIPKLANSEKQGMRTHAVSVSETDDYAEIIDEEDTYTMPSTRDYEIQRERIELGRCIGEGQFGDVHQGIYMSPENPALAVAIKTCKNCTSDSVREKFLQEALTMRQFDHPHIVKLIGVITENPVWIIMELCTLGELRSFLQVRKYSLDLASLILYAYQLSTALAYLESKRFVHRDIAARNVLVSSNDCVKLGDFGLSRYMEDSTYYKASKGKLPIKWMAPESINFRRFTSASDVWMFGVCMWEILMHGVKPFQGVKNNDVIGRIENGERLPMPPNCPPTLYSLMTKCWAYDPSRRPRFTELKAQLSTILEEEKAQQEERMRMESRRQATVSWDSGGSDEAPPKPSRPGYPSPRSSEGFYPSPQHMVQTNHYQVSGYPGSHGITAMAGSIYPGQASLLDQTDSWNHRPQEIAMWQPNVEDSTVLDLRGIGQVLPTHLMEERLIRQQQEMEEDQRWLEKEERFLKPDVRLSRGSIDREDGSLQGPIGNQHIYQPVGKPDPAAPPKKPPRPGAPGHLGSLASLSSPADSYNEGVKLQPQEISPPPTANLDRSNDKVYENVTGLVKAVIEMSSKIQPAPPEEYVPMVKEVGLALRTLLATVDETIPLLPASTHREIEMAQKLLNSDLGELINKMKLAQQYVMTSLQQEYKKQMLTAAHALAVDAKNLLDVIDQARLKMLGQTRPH

[7] = biological target: T3, selected panels of kinases in HeLa and PC3 cell lysates (Homo sapiens, UniProt Q6PHR2); experiment: as above; assay type: binding; conditions: 10 uM; ULK3; peptide EVVAIkCVAK; proteome HEL; labeling site Lys1
T3 construct: endogenous in cells; host or cells: HeLa and PC3 cell lysates
T3 sequence (Q6PHR2 whole entry): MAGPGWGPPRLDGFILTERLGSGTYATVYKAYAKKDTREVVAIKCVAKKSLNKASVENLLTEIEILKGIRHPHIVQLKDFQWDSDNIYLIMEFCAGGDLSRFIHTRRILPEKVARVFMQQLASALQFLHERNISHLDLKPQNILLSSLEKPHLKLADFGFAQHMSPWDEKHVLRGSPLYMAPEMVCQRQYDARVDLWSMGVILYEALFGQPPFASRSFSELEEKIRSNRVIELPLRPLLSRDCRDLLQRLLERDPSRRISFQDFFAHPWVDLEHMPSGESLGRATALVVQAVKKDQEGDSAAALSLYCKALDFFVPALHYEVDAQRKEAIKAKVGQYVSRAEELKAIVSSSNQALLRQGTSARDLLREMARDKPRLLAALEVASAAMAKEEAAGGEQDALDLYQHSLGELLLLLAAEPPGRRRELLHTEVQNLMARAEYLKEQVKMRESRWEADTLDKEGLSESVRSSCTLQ

[8] = biological target: T4, selected panels of kinases in HeLa and PC3 cell lysates (Homo sapiens, UniProt Q86SG6); experiment: as above; assay type: binding; conditions: 10 uM; proteome PC3; peptide DLkTQNILLDK; labeling site Lys2
T4 construct: endogenous in cells; host or cells: HeLa and PC3 cell lysates

[9] = biological target: T5, selected panels of kinases in HeLa and PC3 cell lysates (Homo sapiens, UniProt Q9UL54); experiment: as above; assay type: binding; conditions: 10 uM; TAO2; peptide DVk[…]; proteome PC3; labeling site Lys2
T5 construct: endogenous in cells; host or cells: HeLa and PC3 cell lysates

[10] = biological target: wild-type LRRK2 (Homo sapiens, UniProt Q5S007); experiment: LRRK2 cellular assay, Ser910/Ser935 phosphorylation in stably transfected HEK293 cells; conditions: up to 3 μM, 90 min
Sequence of wild-type LRRK2 (Q5S007 whole entry): as the sequence (Q5S007 whole entry A2016T) above, with T2016A counted along it
Protocol: as §1, §2, §3

[11] = biological target: T6, panel of 442 kinases (Homo sapiens, UniProt Q5S007); assay type: binding; conditions: Compound Concentration 10 µM
T6 construct: purchased KINOMEscan
T6 sequence (Q5S007 whole entry): as the sequence (Q5S007 whole entry A2016T) above, with T2016A counted along it
Excerpt: We assessed the selectivity of members of this scaffold using the KINOMEscan methodology across a near comprehensive panel of 442 kinases [[18,27]].

Compound | EC50 [1] [nM] | IC50 [3] [nM] | % Inhibiton, FAK [6] [%] | % Inhibition ULK3 [7] [%] | % Inhibiton, NEK8 [8] [%] | % Inhibition TAO2 [9] [%] | KINOMEscan: LRRK2 [11] | other results
COc1cc(C(=O)N2CCC(N3CCN(C)CC3)CC2)ccc1Nc1ncc2c(n1)N1CCc3cccc(c31)C(=O)N2C [Compound 24] | 260 ± 40 | 199 ± 12 | – | – | – | – | – | effect on phosphorylation of Ser910 and Ser935 [2]: no effect
CCOc1cc(C(=O)N2CCC(N3CCN(C)CC3)CC2)ccc1Nc1ncc2c(n1)N(C1CCCC1)c1ccccc1C(=O)N2C [Compound 26] | – | – | 48.4 | 2.5 | -8.1 | 7.2 | – | effect on phosphorylation of endogenous LRRK2 at Ser910 and Ser935 [4]: did not show inhibitory effects; AUC0−∞ ([5]; IV, 1 mg/kg): 1743.83 ng·h/mL; CL ([5]; IV, 1 mg/kg): 8.64 mL/min/kg; Cmax ([5]; IV, 1 mg/kg): 439 ng/mL; T1/2 ([5]; IV, 1 mg/kg): 8.2 h; Vss ([5]; IV, 1 mg/kg): 4.67 L/kg; AUC0−∞ ([5]; PO, 10 mg/kg): 15745 ng·h/mL and 15745.48 ng·h/mL; Cmax ([5]; PO, 10 mg/kg): 1142.77 ng/mL; F (oral bioavailability) ([5]; PO, 10 mg/kg): 90%; Tmax ([5]; PO, 10 mg/kg): 4.0 H; inhibitory effect against LRRK2 in cells (Ser910/Ser935 phosphorylation) [10]: did not show any inhibitory effect
COc1cc(C(=O)N2CCC(N3CCN(C)CC3)CC2)ccc1Nc1ncc2c(n1)N(C1CCCC1)c1ccccc1C(=O)N2C [Compound 25, 11-cyclopentyl-2-((2-methoxy-4-(4-(4-methylpiperazin-1-yl)piperidine-1-carbonyl)phenyl)amino)-5-methyl-5H-benzo[e]pyrimido[5,4-b][1,4]diazepin-6(11H)-one] | 80 ± 20 | 82 ± 9 | 79.4 | -3.7 | -18.9 | 0.261 | 28 | –
COc1cc(C(=O)N2CCC(N3CCN(C)CC3)CC2)ccc1Nc1ncc2c(n1)N(C)c1ccccc1C(=O)N2C [15 (LRRK2-IN-1)] | – | – | – | – | – | – | 0 | –

From article PMC3914206
